Data taken from US11242337B2, “Compounds useful for treating gastrointestinal tract disorders” (Ardelyx, Inc., priority 2017, dated 2022).

Columns and labels:
[1] = human absorption data, from Ertl et al., J. Med. Chem, 2000; cited from earlier work
[2] = biological target: T1, NHE3 (Homo sapiens, UniProt P48764); experiment: persistent inhibition of NHE3 in the cell-based assay of example 181 (4-chloro vs 4-cyano pairs); details: for IC50: read-out: pIC50 (persistent) (converted); for Percent Inhibition: cell-based assay of example 181, persistent
T1 construct: expressed in transfected cells
T1 sequence (P48764 26-834): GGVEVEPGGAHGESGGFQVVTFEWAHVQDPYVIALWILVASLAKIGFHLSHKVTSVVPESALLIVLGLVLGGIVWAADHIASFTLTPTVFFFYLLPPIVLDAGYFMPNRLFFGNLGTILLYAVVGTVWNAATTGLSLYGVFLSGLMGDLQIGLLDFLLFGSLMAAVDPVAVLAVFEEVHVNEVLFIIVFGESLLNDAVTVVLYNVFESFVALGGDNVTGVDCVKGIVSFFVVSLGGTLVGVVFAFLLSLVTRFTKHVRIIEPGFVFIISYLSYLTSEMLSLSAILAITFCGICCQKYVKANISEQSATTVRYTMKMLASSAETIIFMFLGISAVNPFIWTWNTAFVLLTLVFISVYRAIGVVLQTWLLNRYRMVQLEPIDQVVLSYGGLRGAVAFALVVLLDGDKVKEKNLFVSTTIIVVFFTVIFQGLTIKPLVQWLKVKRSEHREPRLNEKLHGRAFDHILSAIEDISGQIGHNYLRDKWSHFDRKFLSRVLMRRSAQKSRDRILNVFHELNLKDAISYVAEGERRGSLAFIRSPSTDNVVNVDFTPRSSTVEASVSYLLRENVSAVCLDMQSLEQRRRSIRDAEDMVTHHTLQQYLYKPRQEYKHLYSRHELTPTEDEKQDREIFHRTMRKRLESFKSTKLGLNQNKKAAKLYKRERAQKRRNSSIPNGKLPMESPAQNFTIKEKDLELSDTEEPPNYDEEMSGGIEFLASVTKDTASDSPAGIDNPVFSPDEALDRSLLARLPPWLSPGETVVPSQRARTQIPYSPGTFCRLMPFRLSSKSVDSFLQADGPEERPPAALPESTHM
T1 sequence (Q99653 2-195 partner limits assumed): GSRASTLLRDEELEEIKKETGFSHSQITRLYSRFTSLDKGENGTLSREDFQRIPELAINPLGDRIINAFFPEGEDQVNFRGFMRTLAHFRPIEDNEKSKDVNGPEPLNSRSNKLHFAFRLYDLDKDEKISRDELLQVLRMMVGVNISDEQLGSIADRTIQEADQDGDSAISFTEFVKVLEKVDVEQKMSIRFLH
Protocol: The following pairs of compounds differ only in the 4-position substituent (either chloro (X—Cl) or cyano (X—CN)):
The ability of compounds to inhibit human and rat NHE-3-mediated Na^+ dependent H^+ antiport after application and washout was measured using a modification of the pH sensitive dye method described above. PS120 fibroblasts stably expressing human NHE3 and NHERF2 were obtained from Mark Donowitz (Baltimore, Md.). Opossum kidney (OK) cells were obtained from the ATCC and propagated per their instructions. The rat NHE-3 gene was introduced into OK cells via electroporation, and cells were seeded into 96 well plates and grown overnight. Medium was aspirated from the wells, cells were washed once with NaCl-HEPES buffer (100 mM NaCl, 50 mM HEPES, 10 mM glucose, 5 mM KCl, 2 mM CaCl2, 1 mM MgCl2, pH 7.4), then overlayed with NaCl-HEPES buffer containing 0-30 μM test compound. After a 60 min incubation at room temperature, the test drug containing buffer was aspirated from the cells. Following aspiration, cells were washed once with NaCl-HEPES buffer without drug, then incubated for 30 min at 37° C. with NH4Cl-HEPES buffer (20 mM NH4Cl, 80 mM NaCl, 50 mM HEPES, 5 mM KCl, 2 mM CaCl2, 1 mM MgCl2, pH 7.4) containing 5 μM BCECF-AM. Cells were washed once with Ammonium free, Na^+-free HEPES (100 mM choline, 50 mM HEPES, 10 mM glucose, 5 mM KCl, 2 mM CaCl2, 1 mM MgCl2, pH 7.4) and incubated in the same buffer for 10 minutes at room temperature to lower intracellular pH. NHE-3-mediated recovery of neutral intracellular pH was initiated (10 min after compound washout) by addition of Na-HEPES buffer. […] Changes in intracellular pH were monitored using a FLIPR Tetra® (Molecular Devices, Sunnyvale, Calif.) by excitation at λex 439 to 505 nm, and measuring BCECF fluorescence at λem 538 nm. The initial rate of the fluorescence ratio change was used as a measure of NHE-mediated Na^+/H^+ activity, and reported as the change in fluorescence ratio per minute.

[3] = system: gastrointestinal transit; experiment: Restoration of gastrointestinal motility in opioid induced constipation (loperamide); format: in vivo, mice; details: vehicle orally, loperamide (0.3 to 6 mg/kg) subcutaneously, 30-minute period
Protocol: Approximately eight-week old, female, CD1 […] are purchased from Envigo (Livermore, Calif.), are housed 4 per cage and acclimated for at least 48 hours before study initiation. Animals are fed standard laboratory rodent chow Harlan Teklad Global 2018 (Madison, Wis.). Animals have ad libitum access to food and water for the duration of the acclimation period and are maintained in a temperature and humidity controlled room on a standard light/dark cycle of 6 AM to 6 PM. Following an overnight fast, with free access to water, animals are dosed by oral gavage with varying doses of test compound or vehicle (3 mM HCl, 0.01% Tween80), at a dose volume of 5 mL/kg. […] For an individual animal, the length travels by the Evans Blue dye front is divided by the length of the whole small intestine, measured from the pylorus to the cecum, and multiplied by 100, to provide the distance of the small intestine travelled by the dye as a percentage.

[4] = cell-based assay of example 181, after washout

Row | Compound | % FA [1] [%] | further results
1 | OC[C@H]1O[C@@H](O[C@@H]2[C@@H](CO)OC(O)(CO)[C@H]2O)[C@H](O)[C@@H](O)[C@H]1O (mixture of isomers) [lactulose, reference compound] | 0.6 | 
2 | Cc1cc(S(=O)(=O)NCCOCCOCCNC(=O)NCCCCNC(=O)NCCOCCOCCNS(=O)(=O)c2ccc(O[C@H]3c4cc(Cl)cc(Cl)c4C[C@@H]3N3CCNCC3)c(C)c2)ccc1O[C@H]1c2cc(Cl)cc(Cl)c2C[C@@H]1N1CCNCC1 [F-Cl, 3-(2-{2-[2-(4-{[(1S,2S)-4,6-dichloro-2-(piperazin-1-yl)-2,3-dihydro-1H-inden-1-yl]oxy}-3-methylbenzenesulfonamido)ethoxy]ethoxy}ethyl)-1-(4-{[(2-{2-[2-(4-{[(1S,2S)-4,6-dichloro-2-(piperazin-1-yl)-2,3-dihydro-1H-inden-1-yl]oxy}-3-methylbenzenesulfonamido)ethoxy]ethoxy}ethyl)carbamoyl]amino}butyl)urea] |  | IC50 [2, 4]: 20 nM; Percent Inhibition [2]: 104%
3 | N#Cc1cc(Cl)cc2c1C[C@H](N1CCNCC1)[C@H]2Oc1ccc(S(=O)(=O)NCCOCCOCCNC(=O)NCCCCNC(=O)NCCOCCOCCNS(=O)(=O)c2ccc(O[C@H]3c4cc(Cl)cc(C#N)c4C[C@@H]3N3CCNCC3)cc2)cc1 [G-CN, 3-(2-{2-[2-(4-{[(1S,2S)-6-chloro-4-cyano-2-(piperazin-1-yl)-2,3-dihydro-1H-inden-1-yl]oxy}benzenesulfonamido)ethoxy]ethoxy}ethyl)-1-(4-{[(2-{2-[2-(4-{[(1S,2S)-6-chloro-4-cyano-2-(piperazin-1-yl)-2,3-dihydro-1-yl]oxy}benzenesulfonamido)ethoxy]ethoxy}ethyl)carbamoyl]amino}butyl)urea] |  | pIC50 (persistent) [2, 4]: 9.0
4 | O=C(NCCCCNC(=O)NCCOCCOCCNS(=O)(=O)c1ccc(O[C@H]2c3cc(Cl)cc(Cl)c3C[C@@H]2N2CCNCC2)cc1)NCCOCCOCCNS(=O)(=O)c1ccc(O[C@H]2c3cc(Cl)cc(Cl)c3C[C@@H]2N2CCNCC2)cc1 [G-Cl, 3-(2-{2-[2-(4-{[(1S,2S)-4,6-dichloro-2-(piperazin-1-yl)-2,3-dihydro-1H-inden-1-yl]oxy}benzenesulfonamido)ethoxy]ethoxy}ethyl)-1-(4-{[(2-{2-[2-(4-{[(1S,2S)-4,6-dichloro-2-(piperazin-1-yl)-2,3-dihydro-1H-inden-1-yl]oxy}benzenesulfonamido)ethoxy]ethoxy}ethyl)carbamoyl]amino}butyl)urea] |  | IC50 [2, 4]: 6.31 nM; Percent Inhibition [2]: 82%
5 | C=CCc1ccccc1OCC(O)CNC(C)C (centres unmarked) [alprenolol] | 96 | 
6 | O=C(O)P(=O)(O)O [foscarnet] | 17 | 
7 | CN(C)C(=O)C(CCN1CCC(O)(c2ccc(Cl)cc2)CC1)(c1ccccc1)c1ccccc1 [loperamide, reference compound] |  | length of the small intestine travelled by the Evans Blue dye front [3]: ~25%
8 | OC[C@@H](O)[C@@H](O)[C@H](O)[C@H](O)CO [mannitol, reference compound] | 26 | 
9 | Cc1ccccc1N1C(=O)c2cc(S(N)(=O)=O)c(Cl)cc2NC1C (centres unmarked) [metolazone, Metolazone, reference compound] | 64 | 
10 | O=C(O)c1cc(/N=N/c2ccc(O)c(C(=O)O)c2)ccc1O [olsalazine] | 2.3 | 
11 | C=CCOc1ccccc1OCC(O)CNC(C)C (centres unmarked) [ozprenolol] | 97 | 
12 | Cc1cc(=O)n(-c2ccccc2)n1C [phenazone] | 97 | 
13 | CC(C)NCC(O)COc1cccc2[nH]ccc12 (centres unmarked) [pindolol] | 92 | 
14 | CC(=O)Nc1ccc(OCC(O)CNC(C)C)cc1 (centres unmarked) [practolol] | 95 | 
15 | OC[C@H]1O[C@H](OC[C@H]2O[C@H](O[C@]3(CO)O[C@H](CO)[C@@H](O)[C@@H]3O)[C@H](O)[C@@H](O)[C@@H]2O)[C@H](O)[C@@H](O)[C@H]1O [raffinose] | 0.3 | 
16 | O=C(O)c1cc(/N=N/c2ccc(S(=O)(=O)Nc3ccccn3)cc2)ccc1O [sulfasalazine, reference compound] | 12 | 
17 | CCN1CCCC1CNC(=O)c1cc(S(N)(=O)=O)ccc1OC (centres unmarked) [sulpiride] | 36 | 
18 | NC[C@H]1CC[C@H](C(=O)O)CC1 [tranexamic acid] | 55 | 
